This is an account of results in PMC9661480, “Discovery and Optimization of Indoline-Based Compounds as Dual 5-LOX/sEH Inhibitors: In Vitro and In Vivo Anti-Inflammatory Characterization” (Journal of Medicinal Chemistry, 2022).

One data set deals with T1, human recombinant sEH (Homo sapiens, UniProt P34913).
T1 construct: made in house; host or cells: Sf9 insect cells (recombinant baculovirus)
T1 sequence (P34913 1-555): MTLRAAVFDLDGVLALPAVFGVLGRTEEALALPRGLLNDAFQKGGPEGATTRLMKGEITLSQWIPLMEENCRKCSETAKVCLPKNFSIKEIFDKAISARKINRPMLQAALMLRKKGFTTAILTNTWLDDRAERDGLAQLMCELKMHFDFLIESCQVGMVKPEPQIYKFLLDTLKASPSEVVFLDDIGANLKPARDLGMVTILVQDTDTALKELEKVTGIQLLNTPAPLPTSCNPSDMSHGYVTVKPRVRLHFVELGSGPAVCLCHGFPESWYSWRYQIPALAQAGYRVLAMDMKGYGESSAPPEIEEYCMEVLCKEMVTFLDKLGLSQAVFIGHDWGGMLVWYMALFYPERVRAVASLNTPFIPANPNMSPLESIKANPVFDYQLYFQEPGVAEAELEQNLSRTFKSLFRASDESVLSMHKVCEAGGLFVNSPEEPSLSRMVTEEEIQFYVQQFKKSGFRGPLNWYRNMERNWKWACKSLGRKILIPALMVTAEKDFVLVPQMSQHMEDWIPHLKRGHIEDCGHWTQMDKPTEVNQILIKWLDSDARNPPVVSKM
Description: sEH activity assay (PHOME substrate). It is filed as biochemical. The note with it: Table 2; human isolated sEH; mean ± SEM.

A further data set concerns the target T2, 5-LOX (Homo sapiens, UniProt P09917).
T2 sequence (P09917 1-674): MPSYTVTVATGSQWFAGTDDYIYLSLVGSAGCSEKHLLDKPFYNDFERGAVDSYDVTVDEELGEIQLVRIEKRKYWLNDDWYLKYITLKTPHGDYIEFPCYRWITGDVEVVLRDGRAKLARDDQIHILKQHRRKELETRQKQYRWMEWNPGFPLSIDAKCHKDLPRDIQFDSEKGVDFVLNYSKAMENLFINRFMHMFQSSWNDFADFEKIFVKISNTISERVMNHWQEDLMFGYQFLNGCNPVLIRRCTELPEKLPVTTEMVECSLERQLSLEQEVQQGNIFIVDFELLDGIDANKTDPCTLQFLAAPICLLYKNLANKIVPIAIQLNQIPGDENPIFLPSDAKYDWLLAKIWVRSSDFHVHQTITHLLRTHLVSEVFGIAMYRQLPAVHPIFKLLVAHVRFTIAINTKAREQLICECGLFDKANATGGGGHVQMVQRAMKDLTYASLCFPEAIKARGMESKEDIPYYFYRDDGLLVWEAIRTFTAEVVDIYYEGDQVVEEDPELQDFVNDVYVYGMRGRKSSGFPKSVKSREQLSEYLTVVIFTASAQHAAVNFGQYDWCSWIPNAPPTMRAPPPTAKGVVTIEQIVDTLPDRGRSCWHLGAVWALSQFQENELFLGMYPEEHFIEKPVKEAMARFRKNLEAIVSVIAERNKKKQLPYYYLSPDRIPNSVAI
Description: Cell-free 5-LOX activity assay. In kind it is biochemical. Details: made in house; host or cells: Escherichia coli Bl21 (DE3). Conditions: Table 2; human isolated 5-LOX; mean ± SEM.

Data set [1] in a line: In vivo plasma levels of 73. The note with it: mouse, ip, mean ±SD.

By IC50 is commonly meant the concentration that gives 50% inhibition. For the compound “1-(1-(4-Aminobutyl)indolin-5-yl)-3-neopentylthiourea [compound 51]”, the 50% inhibitory concentration (IC50) at human recombinant sEH and against 5-LOX was > 10 µM in each case.
Regarding “4-(3-(1-(4-Fluorobenzyl)indolin-5-yl)thioureido)benzoic Acid [compound 58]”, the IC50 on human recombinant sEH was > 10 µM.
`CC(C)(C)CNC(=S)Nc1ccc2c(c1)CCN2Cc1ccc(N=O)cc1` [compound 73, 1-Neopentyl-3-(1-(4-nitrosobenzyl)indolin-5-yl)thiourea]: the concentration at 0.5 h in data set [1] (0.5 h after 10 mg Kg-1 intraperitoneal) was 15.4 ± 2.5 ng/mL. The compound also yielded a concentration at 1 h in data set [1] (1 h after 10 mg Kg-1 intraperitoneal) of 12.3 ± 0.9 ng/mL. The compound further came in with a concentration at 2 h in data set [1] (2 h after 10 mg Kg-1 intraperitoneal) of 10.6 ± 0.6 ng/mL. For the same compound, in data set [1] (4 h after 10 mg Kg-1 intraperitoneal), the concentration at 4 h came to 1.1 ± 0.1 ng/mL.
